Measurements published in PubChem BioAssay AID1645848.
Converted amounts (≈) assume the structure as drawn.

Conditions: buffer; pH 7.4; 6.0 h; 150.0 µM

Row | Structure (SMILES) | solubility kinetic
1 | O=C(Nc1nnc(-c2ccc(Cl)cc2)o1)c1ccc(Cl)c(Cl)c1 | < 1 µg/mL
2 | COc1ccc(NC(=O)c2[nH]c(C)c(C(C)=O)c2C)cc1S(=O)(=O)Nc1ccc(C#N)cc1 | 4.06 µg/mL (≈ 8.7 µM)
3 | CC(C)Oc1ccc(CNC(=O)C2CCN(C(=O)N3CCOc4ccc(Cl)cc43)CC2)cc1 | 9.14 µg/mL (≈ 19.4 µM)
4 | O=C(Cc1ccc(Cl)c(Cl)c1)Nc1ccc(S(=O)(=O)Nc2ccon2)cc1 | > 100 µg/mL
5 | CCN1CCN(C(=O)CCCn2nc(C)c3c(C)n(-c4ccc(C)cc4)nc3c2=O)CC1 | > 43 µg/mL
6 | NC(=O)C1CCN(c2nc(-c3ccc(N4CCCCC4)nc3)cs2)CC1 | 43.5 µg/mL (≈ 117 µM)
7 | CN(C)CC(=O)NC1CCCc2c1cnn2-c1ccc(F)cc1F (stereo not given) | > 33 µg/mL
8 | CC1(C)CCC(CN2CCN(c3ccc(C(=O)NS(=O)(=O)c4ccc(NCC5CCOCC5)c([N+](=O)[O-])c4)c(Oc4cnc5[nH]ccc5c4)c3)CC2)=C(c2ccc(Cl)cc2)C1 | < 1 µg/mL
9 | CN(C(=O)OC(C)(C)C)[C@@H](Cc1ccc(O[S+](=O)([O-])c2cccc3cnccc23)cc1)C(=O)N1CCN(C(=O)OCc2ccccc2)CC1 | < 1 µg/mL
10 | COc1cc(C2c3c(oc4cc(C)c(C)cc4c3=O)C(=O)N2CCCN2CCOCC2)ccc1O (stereo not given) | > 71 µg/mL
11 | Cc1noc(C)c1C(=O)N1CCC2(CCCN(Cc3ccccc3)C2)CC1 | < 1 µg/mL
12 | COCCNC(=O)[C@H]1C[C@H](Oc2ccccc2)CN1Cc1ccc2[nH]ccc2c1 | 17.1 µg/mL (≈ 43.5 µM)
13 | CC(C)(C)CC(C)(C)c1ccc(O)cc1 | 2.09 µg/mL (≈ 10.1 µM)
14 | N#Cc1ccccc1CSc1nc2ncc(Br)cc2[nH]1 | 1.09 µg/mL (≈ 3.16 µM)
15 | CCNC(=O)c1ccc(-c2ccc3ncnc(NCC4CCCO4)c3c2)o1 (stereo not given) | 25 µg/mL (≈ 68.3 µM)
16 | COc1ccc(OC)c(CNc2ncnc3onc(C)c23)c1 | > 44 µg/mL
17 | C=C1C(=O)O[C@@H]2[C@H]3O[C@]3(C)CC/C=C(\C)CC[C@@H]12 | 7.28 µg/mL (≈ 29.3 µM)
18 | CCC(CC)c1cc([C@H]2CN3CC[C@H]2C[C@@H]3CNS(=O)(=O)c2cccs2)nc(-c2ccncc2)n1 | 52.2 µg/mL (≈ 102 µM)
19 | Cc1cc(C(=O)Nc2nnc(C3CCCCC3)s2)cs1 | < 1 µg/mL
20 | N#Cc1cccc(-c2nccc(-n3ccnc3)n2)c1 | 7.26 µg/mL (≈ 29.4 µM)
21 | COc1cc2cc(CN3CCC(N(C)C)C3)c(-c3cccc(Cl)c3)nc2cc1OC (stereo not given) | > 42 µg/mL
22 | Cc1cc(NS(=O)(=O)c2ccc(NC(=O)Cc3ccc(Cl)c(Cl)c3)cc2)n(C)n1 | > 67 µg/mL

Row | Structure (SMILES) | solubility kinetic
23 | Cc1cc(C)nc(NC(=S)N2CCN(Cc3cccc(C(F)(F)F)c3)CC2)c1 | 35.9 µg/mL (≈ 87.8 µM)
24 | Cc1ccnc(NC(=S)N2CCC(c3cccc(C(F)(F)F)c3)CC2)c1 | 7.75 µg/mL (≈ 20.4 µM)
25 | Cc1cnc(-c2ccccc2C(F)F)nc1NCC1CN(c2cnccn2)C1 | > 56 µg/mL
26 | O=C(O)c1ccnc2cc(C(OCCN3CCCCC3)c3ccccc3Cl)[nH]c12 (stereo not given) | > 61 µg/mL
27 | COc1ccc2cc1Oc1ccc(cc1)C[C@@H]1c3c(cc(OC)c4c3Oc3cc5c(cc3O4)CCN[C@H]5C2)CCN1C | < 1 µg/mL
28 | COc1cc(=O)n2c(c1C(=O)N(C)Cc1cscn1)CCN(C(=O)c1ccc(C)cc1C)CC2 | > 71 µg/mL
29 | CC1=C(C(=O)Nc2nc3ccccc3s2)C(c2[nH]ncc2Cl)N=C(Nc2nc3ccccc3o2)N1 (stereo not given) | < 1 µg/mL
30 | COc1ccc(NC(=O)c2c(C)cccc2C)cc1[S+](=O)([O-])N1CCCCC1 | 38.8 µg/mL (≈ 96.3 µM)
31 | CC(=O)Nc1ccc(CN2CCc3nc(C(C)C)nc(-c4ccc(Cl)cc4)c3CC2)cc1 | 33.1 µg/mL (≈ 73.7 µM)
32 | NC(=O)C1CCN(c2nc(-c3ccccc3N)cs2)CC1 | 29.4 µg/mL (≈ 97.1 µM)
33 | O=C1CCCC2=C1C1(CCCC1)N=C(Nc1nc3ccccc3o1)N2 | < 1 µg/mL
34 | OC1(c2ccc(Cl)cc2)CCN(Cc2c[nH]c3ccccc23)CC1 | > 50 µg/mL
35 | CCc1cccc(NC(=O)c2c(C)oc3nc(C)nc(N4CCCC4)c23)c1 | 14.8 µg/mL (≈ 40.6 µM)
36 | COc1ccc(NC(=O)c2c(C)cccc2C)cc1[S+](=O)([O-])N1CCCCCC1 | 15.8 µg/mL (≈ 37.9 µM)
37 | CN(C)c1cccc(-c2nc(N3CCC(C(N)=O)CC3)ncc2F)c1 | 42.6 µg/mL (≈ 124 µM)
38 | CCCNc1oc(-c2cccc3ccccc23)nc1C#N | < 1 µg/mL
39 | COc1cc(-c2nc(-c3c(C)noc3C)cc3c2cc(C)n3CCN(C)C)ccn1 | > 90 µg/mL
40 | O=C1CCCC2=C1C(c1[nH]ncc1Cl)N=C(Nc1nc3cc([S+](=O)([O-])N4CCCC4)ccc3o1)N2 (stereo not given) | 36.2 µg/mL (≈ 70.2 µM)
41 | COc1ccccc1NS(=O)(=O)c1cccc(NC(=O)c2[nH]c(C)c(C(C)=O)c2C)c1 | 15.2 µg/mL (≈ 34.4 µM)
42 | COc1cc2c(c(OC)c1OC)-c1ccc(SC)c(=O)cc1C(N)CC2 (stereo not given) | > 55 µg/mL
43 | Fc1cnc(-c2ccccc2C(F)F)nc1NCC1CCN(c2cnccn2)C1 (stereo not given) | 42.2 µg/mL (≈ 105 µM)
44 | Cc1cc(C)c(C(=O)Nc2cccc([S+](=O)([O-])N3CCCCCC3)c2)[nH]1 | < 1 µg/mL

The remaining lines, values ahead:

Row | solubility kinetic | Structure (SMILES)
45 | > 56 µg/mL | COc1ccc(-n2nc(C3CCN(C(=O)c4ccccc4)CC3)[nH]c2=O)cc1
46 | 18.1 µg/mL (≈ 42.9 µM) | CCN1C(=O)c2ccccc2[S@](=O)c2ccc(C(=O)NCc3ccc(F)cc3)cc21
47 | 1.84 µg/mL (≈ 4.18 µM) | O=S(=O)(Nc1cnc2ccccc2c1)c1ccc(NCc2cccc(Cl)c2O)cc1
48 | < 1 µg/mL | Cc1ccc([S+](=O)([O-])n2cc(-c3ccc(-c4ccccc4)cc3)c3ccccc32)cc1
49 | 3.12 µg/mL (≈ 7.47 µM) | CCOc1ccc(CCNC(=O)c2cccc(C(=O)c3ccccc3)c2)cc1OCC
50 | < 1 µg/mL | COc1cc(NS(=O)(=O)c2ccc(C)cc2)cc(C(=O)Nc2nc(-c3ccccc3)cs2)c1
51 | < 1 µg/mL | COc1ccc(NC(=O)c2ccccc2)cc1S(=O)(=O)Nc1ccc(Br)cc1
52 | 1.14 µg/mL (≈ 2.74 µM) | CC(C)c1ccccc1-c1ncc(F)c(NC(C)(C)c2ccc(-n3ccnn3)cc2)n1
53 | > 66 µg/mL | Cc1ccc(S(=O)(=O)Nc2nc3ccc(C)cc3nc2Nc2ccc3c(c2)OCO3)cc1
54 | 2.31 µg/mL (≈ 5.73 µM) | O=C(Cc1ccc(-c2csc(Nc3ccc(F)cc3)n2)s1)N1CCOCC1
55 | < 1 µg/mL | O=C(Nc1ccc2oc(-c3cccnc3)nc2c1)c1ccc(-c2ccccc2)o1
56 | < 1 µg/mL | Fc1ccc(CNc2nc(-c3ccncc3)nc3ccccc23)cc1F
57 | 2.08 µg/mL (≈ 6.34 µM) | CCn1c(C(=O)NCCc2ccc(OC)cc2)cc2sccc21
58 | < 1 µg/mL | COC(=O)c1ccc2c(C(=Nc3ccc(N(C)C(=O)CN4CCN(C)CC4)cc3)c3ccccc3)c(O)[nH]c2c1
59 | < 1 µg/mL | O=C(Nc1ccc(S(=O)(=O)N2CCN(Cc3ccccc3)CC2)cc1)c1cnccn1
60 | < 1 µg/mL | O=C(Nc1ncc(Cc2ccc(C(F)(F)F)cc2)s1)c1cnc(-c2ccccc2)s1
61 | < 1 µg/mL | CNc1cc(-c2nc(Nc3ccc(F)c(F)c3)c3ccccc3n2)ccn1
62 | < 1 µg/mL | Cc1ccc(S(=O)(=O)N(C)c2ccccc2C(=O)Nc2nc(-c3ccccc3)cs2)cc1
63 | 4.88 µg/mL (≈ 10.9 µM) | Cc1ccc(-c2nc(C)c(C(=O)Nc3ccc4c(c3)C(=O)N3CCC[C@H]3C(=O)N4)s2)cc1
64 | 3.83 µg/mL (≈ 8.79 µM) | O=C(COc1ccccc1)NCC(c1cccs1)S(=O)(=O)c1ccc(Cl)cc1 (stereo not given)
65 | 4.51 µg/mL (≈ 11.5 µM) | O=C(NCc1ccco1)c1nc2nc(-c3cccs3)cc(C(F)(F)F)n2n1
66 | < 1 µg/mL | Cc1noc(C)c1-c1ccc(Nc2nc(-c3ccncc3)nc3ccccc23)cc1F
67 | < 1 µg/mL | COc1ccc(-n2nc(C3CCN([S+](=O)([O-])c4cccc(C(F)(F)F)c4)CC3)[nH]c2=O)cc1
68 | 12 µg/mL (≈ 22.7 µM) | Cc1cc(C)c2nc(-c3ccccn3)cc(C(=O)Nc3ccc(S(=O)(=O)Nc4onc(C)c4C)cc3)c2c1
69 | < 1 µg/mL | COc1ccc(C(=O)Nc2nc(-c3ccccc3)cs2)cc1NS(=O)(=O)c1ccc(C)cc1
70 | 29 µg/mL (≈ 70.4 µM) | COCCNS(=O)(=O)c1cc(-c2nn3c(C)nnc3c3ccccc23)ccc1C

Row | solubility kinetic | Structure (SMILES)
71 | 40.3 µg/mL (≈ 85.4 µM) | Cc1cc(C)c(CNC(=O)c2nc(-c3ccc(CN(C)C)cc3)cc3c2ccn3C(C)C)c(=O)[nH]1
72 | > 55 µg/mL | O=C(Nc1ncccc1O)c1ccc(S(=O)(=O)Nc2ccccc2)cc1
73 | > 59 µg/mL | COc1ccc(C2=Nc3ccc(C)cc3C(c3ccccc3)N2CC(=O)NN)cc1 (stereo not given)
74 | < 1 µg/mL | O=C(Nc1ccc2oc(-c3ccncc3)nc2c1)c1ccccc1Cl
75 | < 1 µg/mL | CC(C)(O)CCc1ccc(OCc2cc(-c3cccc(OC(F)F)c3)c3ncccc3c2)cc1
76 | 36.8 µg/mL (≈ 82.9 µM) | CC1(COc2ccc3c(c2)ncn3-c2ccc3cccc(N4CCC(N)CC4)c3n2)COC1
77 | > 58 µg/mL | Cc1ccc2oc3c(c(=O)c2c1)C(c1ccc(O)cc1)N(CCCN(C)C)C3=O (stereo not given)
78 | < 1 µg/mL | O=C(Nc1ncc(Cc2ccc(C(F)(F)F)cc2)s1)c1ccc(-c2ccc([N+](=O)[O-])cc2)o1
79 | < 1 µg/mL | CCOc1ccc(N2C(=O)c3n[nH]c(-c4cccs4)c3C2c2cccc(F)c2)cc1 (stereo not given)
80 | < 1 µg/mL | c1cc(-c2cc(-c3ccncc3)c3cncn3c2)c2cc[nH]c2c1
81 | > 51 µg/mL | COc1ccc(-n2nc(C3CCCN(C(=O)C4CC4)C3)[nH]c2=O)cc1 (stereo not given)
82 | 54.9 µg/mL (≈ 138 µM) | OCc1ccc(-c2cc3c(ccn3Cc3cccnc3)c(C3=CCOCC3)n2)cc1
83 | 1.45 µg/mL (≈ 3.38 µM) | CCOC(=O)c1ccc(N2C(=O)c3n[nH]c(-c4ccco4)c3C2c2ccc(C)cc2)cc1 (stereo not given)
84 | > 58 µg/mL | COc1cccc(CNc2ccc(S(=O)(=O)Nc3nccs3)cc2)c1O
85 | > 76 µg/mL | CCCCN(CC)CCCNC(=O)c1ccc2c(c1)N(Cc1ccc(C)cc1)C(=O)c1ccccc1S2
86 | < 1 µg/mL | Fc1ccc(Nc2nc(-c3ccccc3)cc(-c3ccncc3)n2)cc1F
87 | < 1 µg/mL | O=[S+]([O-])(Nc1cccc2ccccc12)c1ccc(NCc2ccc(Cl)cc2O)cc1
88 | < 1 µg/mL | COc1ccc(NS(=O)(=O)c2ccc(C)cc2)c(C(=O)Nc2nc(-c3ccccc3)cs2)c1
89 | < 1 µg/mL | COc1ccc(-c2[nH]nc3ncc(-c4ccc(CO)cc4)nc23)cc1F
90 | 9.71 µg/mL (≈ 19.5 µM) | COc1ccc(CCN2C(=O)N(c3ccc(F)cc3)C(=O)C2CC(=O)Nc2ccc(F)c(F)c2)cc1 (stereo not given)
91 | < 1 µg/mL | COc1ccc(Nc2ncc(C(=O)Nc3cccc(Cl)c3)c3ccccc23)cc1
92 | 1.8 µg/mL (≈ 5.29 µM) | O=c1c2ccccc2nc(/C=C/c2cccnc2)n1Cc1ccccc1
93 | > 60 µg/mL | COc1ccccc1OCCNCC(O)COc1cccc2[nH]c3ccccc3c12 (stereo not given)
94 | > 76 µg/mL | COc1ccc(CCNC(=O)c2cc3c(=O)n4ccccc4nc3n(CCCN3CCOCC3)c2=N)cc1
95 | < 1 µg/mL | Cn1c2ccccc2c(=O)c2c(=O)n(-c3ccccc3)c(C3CCCCC3)nc21
